In general, pIC50 refers to the IC50 on a negative log10 scale, so that one unit is a factor of ten. A higher pIC50 goes with a low IC50.

From patent US11591336B2 (Relay Therapeutics, Inc., priority 2017, dated 2023) come the findings set out here.

pIC50: −log10 of the molar value. Counter-ions that a name gives are not always drawn.

The test deals with SHP2 (Homo sapiens (Human), UniProt Q06124). The test can be described thus: SHP2 Allosteric Inhibition Assay (DiFMUP prompt fluorescence). The test is classed as biochemical. The following applies: 0.25 nM SHP2 activated with 0.5 μM peptide IRS1_pY1172(dPEG8)pY1222; substrate DiFMUP 100 μM; 25° C.
SHP2, sequence (Q06124 whole entry): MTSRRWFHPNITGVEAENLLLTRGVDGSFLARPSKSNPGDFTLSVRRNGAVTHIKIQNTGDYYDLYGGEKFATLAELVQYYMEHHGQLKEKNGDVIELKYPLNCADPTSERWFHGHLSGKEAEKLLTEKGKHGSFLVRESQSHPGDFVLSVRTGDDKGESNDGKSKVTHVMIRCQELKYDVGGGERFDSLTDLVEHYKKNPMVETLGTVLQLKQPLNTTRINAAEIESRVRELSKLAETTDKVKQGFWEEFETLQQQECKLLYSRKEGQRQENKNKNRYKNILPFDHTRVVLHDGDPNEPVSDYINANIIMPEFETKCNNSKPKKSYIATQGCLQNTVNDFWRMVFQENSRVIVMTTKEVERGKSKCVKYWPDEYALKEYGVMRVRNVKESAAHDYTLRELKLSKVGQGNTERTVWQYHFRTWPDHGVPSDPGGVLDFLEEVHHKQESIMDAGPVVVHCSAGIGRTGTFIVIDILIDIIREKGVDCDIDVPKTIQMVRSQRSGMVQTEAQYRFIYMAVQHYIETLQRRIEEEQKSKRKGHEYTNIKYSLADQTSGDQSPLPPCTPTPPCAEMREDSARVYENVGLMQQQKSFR
In the case of `C[C@H]1C[C@H](N)CCN1c1cnc2c(N3CCCc4ncccc43)n[nH]c2n1` (stereo in doubt) [Compound 25, rel-(2S,4R)-1-(3-(3,4-dihydro-1,5-naphthyridin-1(2H)-yl)-1H-pyrazolo[3,4-b]pyrazin-6-yl)-2-methylpiperidin-4-amine], the pIC50 is over 6.00. Consider `C[C@@H]1C[C@@H](N)CCN1c1cnc2c(N3CCCc4ncccc43)n[nH]c2n1` (stereo in doubt) [Compound 74, rac-(2R,4S)-1-(3-(3,4-dihydro-1,5-naphthyridin-1(2H)-yl)-1H-pyrazolo[3,4-b]pyrazin-6-yl)-2-methylpiperidin-4-amine], for which the pIC50 was over 6.00. The compound `N[C@@H]1CCC[C@]12CCN(c1cnc3c(N4CCCc5ncccc54)n[nH]c3n1)C2` (stereo in doubt) [Compound 204, rel-(5R,6R)-2-(3-(3,4-dihydro-1,5-naphthyridin-1(2H)-yl)-1H-pyrazolo[3,4-b]pyrazin-6-yl)-2-azaspiro[4.4]nonan-6-amine] gave a pIC50 of 5.00 to 6.00.

`N[C@H]1CCC[C@@]12CCN(c1cnc3c(N4CCCc5ncccc54)n[nH]c3n1)C2` (stereo in doubt) [Compound 205, rel-(5S,6S)-2-(3-(3,4-dihydro-1,5-naphthyridin-1(2H)-yl)-1H-pyrazolo[3,4-b]pyrazin-6-yl)-2-azaspiro[4.4]nonan-6-amine]: the pIC50 is 5.00 to 6.00. Then `CC1CCN(c2n[nH]c3nc(N4CCC5(CC4)CO[C@@H](C)[C@H]5N)cnc23)c2ccc(C(N)=O)nc21` (stereo in doubt) [Compound 264, (8S)-5-{6-[(3S,4S)-4-amino-3-methyl-2-oxa-8-azaspiro[4.5]decan-8-yl]-1H-pyrazolo[3,4-b]pyrazin-3-yl}-8-methyl-5,6,7,8-tetrahydro-1,5-naphthyridine-2-carboxamide], with over 6.00; and `CC1CCN(c2n[nH]c3nc(N4CCC5(CC4)CO[C@@H](C)[C@H]5N)cnc23)c2ccc(C(N)=O)nc21` (stereo in doubt) [Compound 265, (8R)-5-{6-[(3S,4S)-4-amino-3-methyl-2-oxa-8-azaspiro[4.5]decan-8-yl]-1H-pyrazolo[3,4-b]pyrazin-3-yl}-8-methyl-5,6,7,8-tetrahydro-1,5-naphthyridine-2-carboxamide], with over 6.00. For `COCCNC(=O)c1ccc2c(n1)C(C)CCN2c1n[nH]c2nc(N3CCC4(CC3)CO[C@@H](C)[C@H]4N)cnc12` (stereo in doubt) [Compound 437, (8S)-5-(6-[(3S,4S)-4-amino-3-methyl-2-oxa-8-azaspiro[4.5]decan-8-yl]-1H-pyrazolo[3,4-b]pyrazin-3-yl)-N-(2-methoxyethyl)-8-methyl-5,6,7,8-tetrahydro-1,5-naphthyridine-2-carboxamide hydrochloride] the value was over 6.00.

Consider `N[C@@H]1CC(O)CC12CCN(c1cnc3c(N4CCCc5ncccc54)n[nH]c3n1)CC2` (stereo in doubt) [Compound 468, (2R,4R)-4-amino-8-(3-(3,4-dihydro-1,5-naphthyridin-1(2H)-yl)-1H-pyrazolo[3,4-b]pyrazin-6-yl)-8-azaspiro[4.5]decan-2-ol], for which the pIC50 was over 6.00. With `NC1CCCC12CCN(c1cnc3c(Sc4cccnc4C(F)(F)F)n[nH]c3n1)CC2` (stereo in doubt) [Compound 476, (S)-8-(3-((2-(trifluoromethyl)pyridin-3-yl)thio)-1H-pyrazolo[3,4-b]pyrazin-6-yl)8-azaspiro[4.5]decan-1-amine], the pIC50 is over 6.00. For `Cn1nc(Sc2ccncc2)c2ncc(N3CCC(C)(N)CC3)nc21` [Cmpd 487] the value was at most 5.00; for `CC1CNCC(Sc2n[nH]c3nc(N4CCC(C)(N)CC4)cnc23)C1` (stereo not shown) [Cmpd 490], at most 5.00; for `CC1(CN)CCN(c2cnc3c(Sc4ccccc4)n[nH]c3n2)CC1` [Compound 7, (4-methyl-1-(3-(phenylthio)-1H-pyrazolo[3,4-b]pyrazin-6-yl)piperidin-4-yl)methanamine], over 6.00. Then `CC1(N)CCN(c2cnc3c(Sc4cccnc4C(F)(F)F)n[nH]c3n2)CC1` [Compound 8, 4-methyl-1-(3-((2-(trifluoromethyl)pyridin-3-yl)thio)-1H-pyrazolo[3,4-b]pyrazin-6-yl)piperidin-4-amine], with over 6.00; and `CC1(CN)CCN(c2cnc3c(Sc4ccccc4Cl)n[nH]c3n2)CC1` [Compound 9, (1-(3-((2-chlorophenyl)thio)-1H-pyrazolo[3,4-b]pyrazin-6-yl)-4-methylpiperidin-4-yl)methanamine], with over 6.00; and `CC1(N)CCN(c2cnc3c(Sc4ccccc4C#N)n[nH]c3n2)CC1` [Compound 10, 2-((6-(4-amino-4-methylpiperidin-1-yl)-1H-pyrazolo[3,4-b]pyrazin-3-yl)thio)benzonitrile], with over 6.00. With `CC1(CN)CCN(c2cnc3c(Nc4ccccc4Cl)n[nH]c3n2)CC1` [Compound 11, 6-(4-(aminomethyl)-4-methylpiperidin-1-yl)-N-(2-chlorophenyl)-1H-pyrazolo[3,4-b]pyrazin-3-amine], the pIC50 is over 6.00. For `CC1(N)CCN(c2cnc3c(Nc4cccnc4Cl)n[nH]c3n2)CC1` [Compound 12, 6-(4-amino-4-methylpiperidin-1-yl)-N-(2-chloropyridin-3-yl)-1H-pyrazolo[3,4-b]pyrazin-3-amine] the value was 5.00 to 6.00; for `CC1(N)CCN(c2cnc3c(Sc4cccc(Cl)c4Cl)n[nH]c3n2)CC1` [Compound 13, 1-(3-((2,3-dichlorophenyl)thio)-1H-pyrazolo[3,4-b]pyrazin-6-yl)-4-methylpiperidin-4-amine], over 6.00; for `Cn1ccnc1Sc1n[nH]c2nc(N3CCC(C)(N)CC3)cnc12` [Compound 14, 4-methyl-1-(3-((1-methyl-1H-imidazol-2-yl)thio)-1H-pyrazolo[3,4-b]pyrazin-6-yl)piperidin-4-amine], at most 5.00. For `CC1(CN)CCN(c2cnc3c(Cc4ccccc4)n[nH]c3n2)CC1` [Compound 15, (1-(3-benzyl-1H-pyrazolo[3,4-b]pyrazin-6-yl)-4-methylpiperidin-4-yl)methanamine] the value was 5.00 to 6.00. `C=C(c1ccccc1)c1n[nH]c2nc(N3CCC(C)(CN)CC3)cnc12` [Compound 16, (4-methyl-1-(3-(1-phenylvinyl)-1H-pyrazolo[3,4-b]pyrazin-6-yl)piperidin-4-yl)methanamine] gave a pIC50 of over 6.00. Then `CC(c1ccccc1)c1n[nH]c2nc(N3CCC(C)(CN)CC3)cnc12` (stereo not shown) [Compound 17, (4-methyl-1-(3-(1-phenylethyl)-1H-pyrazolo[3,4-b]pyrazin-6-yl)piperidin-4-yl)methanamine], with 5.00 to 6.00. Then `CC1(CN)CCN(c2cnc3c(C(=O)c4ccccc4)n[nH]c3n2)CC1` [Compound 18, (6-(4-(aminomethyl)-4-methylpiperidin-1-yl)-1H-pyrazolo[3,4-b]pyrazin-3-yl)(phenyl)methanone], with 5.00 to 6.00. `CC1(CN)CCN(c2cnc3c(C(C)(O)c4ccccc4)n[nH]c3n2)CC1` (stereo not shown) [Compound 19, 1-(6-(4-(aminomethyl)-4-methylpiperidin-1-yl)-1H-pyrazolo[3,4-b]pyrazin-3-yl)-1-phenylethanol] had a pIC50 of 5.00 to 6.00.

Compound `CC1(N)CCN(c2cnc3c(-n4cnc5ccccc54)n[nH]c3n2)CC1` [Compound 20, 1-(3-(1H-benzo[d]imidazol-1-yl)-1H-pyrazolo[3,4-b]pyrazin-6-yl)-4-methylpiperidin-4-amine] showed a pIC50 of 5.00 to 6.00.
